Consider three molecules from paper PMC6317893 (Journal of pharmaceutical sciences, 2018).

Data set [1] has as its target T1, mouse Pgp (Abcb1a, MDR3) (Mus musculus, UniProt P21447).
Data set [2] addresses T1, mouse Pgp (Abcb1a, MDR3). As to the kind of experiment: biochemical.
Data set [3] addresses T1, mouse Pgp (Abcb1a, MDR3). This is another data set of the same source.
The test system of data set [4] is Pgp. To be noted: cited from earlier work.
The test system of data set [5] is Pgp. To be noted: humans ref 32; cited from earlier work.
For data set [6], the system named is Pgp. The conditions noted are these: rats ref 32; cited from earlier work.
Data set [7] has as its target T1, mouse Pgp (Abcb1a, MDR3). As to the kind of experiment: in vitro. The conditions noted are these: pH 7.4.
Data set [8] has as its target T1, mouse Pgp (Abcb1a, MDR3). The source holds these as a separate data set.
The next data set has as its system human and mouse Pgp. To be noted: study of CNS drugs ref 96; cited from earlier work.
Data set [9] addresses T1, mouse Pgp (Abcb1a, MDR3). Kind of data set: biochemical. The source holds these as a separate data set.
Data set [10] concerns the target T1, mouse Pgp (Abcb1a, MDR3). The conditions noted are these: for KSV of acrylamide quenching of Pgp (slope of Stern-Volmer plot): 1 μM Pgp.
Data set [11] relates to Pgp. The conditions noted are these: Caco-2 cells, cited from earlier work.

Where two headings read alike, the source gives them in different places.

T1 sequence (P21447 whole entry): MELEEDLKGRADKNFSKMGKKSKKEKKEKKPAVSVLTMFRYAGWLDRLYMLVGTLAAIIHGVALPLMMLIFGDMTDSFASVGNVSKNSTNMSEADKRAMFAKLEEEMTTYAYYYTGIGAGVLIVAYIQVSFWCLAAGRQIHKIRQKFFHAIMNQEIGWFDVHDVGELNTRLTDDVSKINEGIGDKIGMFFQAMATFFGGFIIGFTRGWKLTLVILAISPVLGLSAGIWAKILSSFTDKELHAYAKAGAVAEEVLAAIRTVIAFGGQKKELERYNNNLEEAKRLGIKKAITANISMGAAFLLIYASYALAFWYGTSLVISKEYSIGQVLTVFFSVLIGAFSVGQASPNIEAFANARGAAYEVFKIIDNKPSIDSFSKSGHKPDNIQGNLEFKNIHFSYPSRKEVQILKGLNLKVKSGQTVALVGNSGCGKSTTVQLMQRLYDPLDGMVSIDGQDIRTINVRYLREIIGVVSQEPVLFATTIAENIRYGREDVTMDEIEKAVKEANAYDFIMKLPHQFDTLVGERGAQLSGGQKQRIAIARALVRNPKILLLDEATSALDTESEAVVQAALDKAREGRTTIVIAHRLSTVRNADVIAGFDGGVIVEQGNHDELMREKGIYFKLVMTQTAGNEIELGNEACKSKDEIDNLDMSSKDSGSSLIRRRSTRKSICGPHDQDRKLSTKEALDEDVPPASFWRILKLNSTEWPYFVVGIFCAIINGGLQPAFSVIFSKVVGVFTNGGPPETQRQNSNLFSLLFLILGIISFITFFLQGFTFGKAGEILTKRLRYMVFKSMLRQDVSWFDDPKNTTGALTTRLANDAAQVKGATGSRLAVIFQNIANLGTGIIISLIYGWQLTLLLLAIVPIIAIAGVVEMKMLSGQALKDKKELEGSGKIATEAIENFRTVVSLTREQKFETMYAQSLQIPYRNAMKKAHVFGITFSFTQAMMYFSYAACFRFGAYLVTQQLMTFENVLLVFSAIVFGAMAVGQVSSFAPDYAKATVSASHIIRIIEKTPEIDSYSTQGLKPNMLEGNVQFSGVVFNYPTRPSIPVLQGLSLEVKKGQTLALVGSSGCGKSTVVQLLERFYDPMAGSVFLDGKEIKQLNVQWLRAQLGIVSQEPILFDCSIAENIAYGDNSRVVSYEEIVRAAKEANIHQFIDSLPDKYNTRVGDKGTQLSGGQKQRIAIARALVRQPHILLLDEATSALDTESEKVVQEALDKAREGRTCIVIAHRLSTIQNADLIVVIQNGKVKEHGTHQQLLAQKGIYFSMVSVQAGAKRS

Take `C[C@H]1O[C@@H](O[C@H]2[C@@H](O)C[C@H](O[C@H]3[C@@H](O)C[C@H](O[C@H]4CC[C@@]5(C)[C@H](CC[C@@H]6[C@@H]5C[C@@H](O)[C@]5(C)[C@@H](C7=CC(=O)OC7)CC[C@]65O)C4)O[C@@H]3C)O[C@@H]2C)C[C@H](O)[C@@H]1O` [digoxin]: the “KSV,L (Stern-Volmer constant, low concentration phase)” value on mouse Pgp (Abcb1a, MDR3) [1] (in the presence of 500 μM loperamide, biphasic, fit to Eq. 5, dynamic quenching) is 4.59 ± 2.10 µM⁻¹. Also, the “KSV,H (Stern-Volmer constant, high concentration phase)” value on mouse Pgp (Abcb1a, MDR3) [1] (in the presence of 500 μM loperamide, biphasic, fit to Eq. 5, static quenching) came to 0.0241 ± 0.0108 µM⁻¹. In addition, the Kd (as a rule, the free concentration of one partner at which half of the binding sites on the other are occupied at equilibrium, for simple one-to-one binding) on mouse Pgp (Abcb1a, MDR3) [2] was 32 ± 13.4 µM.
As to `CN(C)C(=O)C(CCN1CCC(O)(c2ccc(Cl)cc2)CC1)(c1ccccc1)c1ccccc1` [loperamide], at mouse Pgp (Abcb1a, MDR3) [3], the “Shape of drug-induced ATPase activation kinetics” value is “biphasic”. Further, the “ATPase activity, apparent maximum” value at mouse Pgp (Abcb1a, MDR3) [3] (at 7.8 μM drug) is reported as “around 800 nmol min^−1 mg^−1”. Besides, the “ATPase activity at saturating drug” value at mouse Pgp (Abcb1a, MDR3) [3] (at saturating (500 μM) drug) is reported as ~ 400 nmol min^−1 mg^−1. For the same molecule, the “Level in brain, Pgp-knockout mice versus wild-type” value in the data set with Pgp [4] is on record as above 10 fold. In addition, the “Levels of loperamide in the presence of cyclosporine A (CsA)” value in the data set with Pgp [5] and in the data set on Pgp [6] was “elevated levels” in each case. Further, at mouse Pgp (Abcb1a, MDR3) [7], the Km (in general, the concentration of substrate that gives half-maximal velocity) worked out at 1.6 ± 0.4 µM. Also, the “Average STDD amplification factor” value on mouse Pgp (Abcb1a, MDR3) [8] (1 mM drug, 1 μM Pgp in liposomes) is recorded as ~ 30. For the same molecule, the “STDD amplification factor of aromatic protons” value on mouse Pgp (Abcb1a, MDR3) [8] (aromatic protons labeled 9–13, 1 mM drug, 1 μM Pgp) was ~ 30. Besides, the “Difference of efflux ratios between human and mouse Pgp” value in the data set with human and mouse Pgp was “less than 2 fold”. In addition, the “Quenching of intrinsic Pgp fluorescence by the drug” value at mouse Pgp (Abcb1a, MDR3) [1] (data not shown) is on record as “did not quench”. Further, the Ki (in general, the equilibrium dissociation constant of an inhibitor or competing ligand from its target) at mouse Pgp (Abcb1a, MDR3) [9] turned out to be 108 ± 27 µM. Also, at mouse Pgp (Abcb1a, MDR3) [10] (500 μM versus 7.8 μM drug), the “Increase of acrylamide-quenching KSV” value was “about 1.4 M^−1”. Besides, the “KSV of acrylamide quenching of Pgp (slope of Stern-Volmer plot)” value at mouse Pgp (Abcb1a, MDR3) [10] (in the presence of 7.8 μM drug) turned out to be 0.851 ± 0.002 M⁻¹; on mouse Pgp (Abcb1a, MDR3) [10] (in the presence of saturating 500 μM drug), 2.25 ± 0.17 M⁻¹. For the same molecule, the “Transport at 100 μM” value with Pgp [11] (100 μM ref 89) is listed as “inhibited”. In addition, the “Concentration at which transport was highest” value in the data set with Pgp [11] (in vitro ref 89) is 5 µM.
Take `CCC(=O)C(CC(C)N(C)C)(c1ccccc1)c1ccccc1` (stereo not shown) [methadone]: at mouse Pgp (Abcb1a, MDR3) [3], the “ATPase activity at saturating drug” value is “around 800 nmol min^−1 mg^−1”. In addition, the “Average STDD amplification factor” value at mouse Pgp (Abcb1a, MDR3) [8] is ~ 10. In addition, on mouse Pgp (Abcb1a, MDR3) [1], the “Increase of KD at low loperamide concentration” value is listed as ~ 5 fold and the “KSV (Stern-Volmer constant) of drug-induced Pgp fluorescence quenching” value was determined as 0.0137 ± 0.0022 µM⁻¹. This molecule also gave a Kd on mouse Pgp (Abcb1a, MDR3) [2] of 72.7 ± 11.7 µM.
